Test results: patent publication US10770169B2, “Method of providing a treatment to a subject based on a dynamic pathway map” (THE REGENTS OF THE UNIVERSITY OF CALIFORNIA, priority 2010, dated 2020)
Like-named read-outs stand apart in the source and are kept apart here.

System: panel of 55 breast cancer cell lines
Experiment: Cell growth inhibition assay (Cell Titer Glo, 72 h, 9 doses; GI50, TGI, LC50)
Type: cell-based, human
Conditions: Homo sapiens, read-out: GI50 (converted)
[1] = 600MPE cell line, censored GI50 values
[2] = AU565, AU565 cell line, censored GI50 values
[3] = BT-20, BT20 cell line, censored GI50 values
[4] = BT-474, BT474 cell line, censored GI50 values
[5] = BT-483, BT483 cell line, censored GI50 values
[6] = BT-549, BT549 cell line, censored GI50 values
[7] = CAMA-1, CAMA1 cell line, censored GI50 values
[8] = HCC38, HCC38 cell line, censored GI50 values
[9] = HCC70, HCC70 cell line, censored GI50 values
[10] = HCC202, HCC202 cell line, censored GI50 values
[11] = HCC1143, HCC1143 cell line, censored GI50 values
[12] = HCC1187, HCC1187 cell line, censored GI50 values
[13] = HCC1395, HCC1395 cell line, censored GI50 values
[14] = HCC1419, HCC1419 cell line, censored GI50 values
[15] = HCC1428, HCC1428 cell line, censored GI50 values
[16] = HCC1500, HCC1500 cell line, censored GI50 values
[17] = HCC1806, HCC1806 cell line, censored GI50 values
[18] = HCC1937, HCC1937 cell line, censored GI50 values
[19] = HCC1954, HCC1954 cell line, censored GI50 values
[20] = HCC2185 cell line, censored GI50 values
[21] = HCC3153 cell line, censored GI50 values
[22] = MCF7, MCF7 cell line, censored GI50 values
[23] = MDA-MB-134-VI, MDAMB134VI cell line, censored GI50 values
[24] = MDA-MB-157, MDAMB157 cell line, censored GI50 values
[25] = MDA-MB-175-VII, MDAMB175VII cell line, censored GI50 values
[26] = MDA-MB-231, MDAMB231 cell line, censored GI50 values
[27] = MDA-MB-361, MDAMB361 cell line, censored GI50 values
[28] = MDA-MB-415, MDAMB415 cell line, censored GI50 values
[29] = MDA-MB-436, MDAMB436 cell line, censored GI50 values
[30] = MDA-MB-468, MDAMB468 cell line, censored GI50 values
[31] = SK-BR-3, SKBR3 cell line, censored GI50 values
[32] = SUM52PE, SUM52PE cell line, censored GI50 values
[33] = SUM149PT, SUM149PT cell line, censored GI50 values
[34] = SUM185PE, SUM185PE cell line, censored GI50 values
[35] = SUM225CWN, SUM225CWN cell line, censored GI50 values
[36] = SUM1315MO2, SUM1315MO2 cell line, censored GI50 values
[37] = SUM-159-PT, SUM159PT cell line, censored GI50 values
[38] = T47D, T47D cell line, censored GI50 values
[39] = UACC-893, UACC893 cell line, censored GI50 values
[40] = ZR-75-1, ZR751 cell line, censored GI50 values

## CNC(=O)c1cc(Oc2ccc(NC(=O)Nc3ccc(Cl)c(C(F)(F)F)c3)cc2)ccn1 [Sorafenib]
[1]
  GI50: 45.7 µM
[2]
  GI50: 178 µM
AU565, cell line AU565
  GI50: 178 µM
[3]
  GI50: 63.1 µM
BT-20, cell line BT20
  GI50: 63.1 µM
[4]
  GI50: 100 µM
BT-474, cell line BT474
  GI50: 100 µM
[5]
  GI50: 11.7 µM
BT-483, cell line BT483
  GI50: 11.7 µM
[6]
  GI50: 120 µM
BT-549, cell line BT549
  GI50: 120 µM
[7]
  GI50: 95.5 µM
CAMA-1, cell line CAMA1
  GI50: 95.5 µM
[8]
  GI50: 87.1 µM
HCC38, cell line HCC38
  GI50: 87.1 µM
[9]
  GI50: 35.5 µM
HCC70, cell line HCC70
  GI50: 35.5 µM
[10]
  GI50: 72.4 µM
HCC202, cell line HCC202
  GI50: 72.4 µM
[11]
  GI50: 58.9 µM
HCC1143, cell line HCC1143
  GI50: 58.9 µM
[12]
  GI50: 32.4 µM
HCC1187, cell line HCC1187
  GI50: 32.4 µM
[13]
  GI50: 47.9 µM
HCC1395, cell line HCC1395
  GI50: 47.9 µM
[14]
  GI50: 417 µM
HCC1419, cell line HCC1419
  GI50: 417 µM
[15]
  GI50: 45.7 µM
HCC1428, cell line HCC1428
  GI50: 45.7 µM
[16]
  GI50: 178 µM
HCC1500, cell line HCC1500
  GI50: 178 µM
[17]
  GI50: 148 µM
HCC1806, cell line HCC1806
  GI50: 148 µM
[18]
  GI50: 513 µM
HCC1937, cell line HCC1937
  GI50: 513 µM
[19]
  GI50: 55 µM
HCC1954, cell line HCC1954
  GI50: 55 µM
[20]
  GI50: 14.8 µM
[21]
  GI50: 120 µM
[22]
  GI50: 64.6 µM
MCF7, cell line MCF7
  GI50: 64.6 µM
[23]
  GI50: 28.8 µM
[24]
  GI50: 240 µM
[25]
  GI50: 81.3 µM
[26]
  GI50: 89.1 µM
[27]
  GI50: 60.3 µM
[28]
  GI50: 95.5 µM
[29]
  GI50: 51.3 µM
[30]
  GI50: 158 µM
[31]
  GI50: 70.8 µM
[32]
  GI50: 1.7 µM
[33]
  GI50: 15.8 µM
[34]
  GI50: 1.48 µM
[35]
  GI50: 40.7 µM
[36]
  GI50: 186 µM
[37]
  GI50: 21.9 µM
[38]
  GI50: 25.7 µM
[39]
  GI50: 331 µM
[40]
  GI50: 45.7 µM
Cell line 600MPE
  GI50: 45.7 µM
Cell line HCC2185
  GI50: 14.8 µM
Cell line HCC3153
  GI50: 120 µM

## CCN(CC)CCNC(=O)c1c(C)[nH]c(/C=C2\C(=O)Nc3ccc(F)cc32)c1C [Sunitinib Malate]
[1]
  GI50: 4.27 µM
[2]
  GI50: 3.8 µM
AU565, cell line AU565
  GI50: 3.8 µM
[3]
  GI50: 16.6 µM
BT-20, cell line BT20
  GI50: 16.6 µM
[4]
  GI50: 17 µM
BT-474, cell line BT474
  GI50: 17 µM
[5]
  GI50: 18.6 µM
BT-483, cell line BT483
  GI50: 18.6 µM
[6]
  GI50: 5.13 µM
BT-549, cell line BT549
  GI50: 5.13 µM
[7]
  GI50: 8.71 µM
CAMA-1, cell line CAMA1
  GI50: 8.71 µM
[8]
  GI50: 5.75 µM
HCC38, cell line HCC38
  GI50: 5.75 µM
[9]
  GI50: 2.51 µM
HCC70, cell line HCC70
  GI50: 2.51 µM
[10]
  GI50: 9.33 µM
HCC202, cell line HCC202
  GI50: 9.33 µM
[11]
  GI50: 6.92 µM
HCC1143, cell line HCC1143
  GI50: 6.92 µM
[12]
  GI50: 5.01 µM
HCC1187, cell line HCC1187
  GI50: 5.01 µM
[13]
  GI50: 4.68 µM
HCC1395, cell line HCC1395
  GI50: 4.68 µM
[14]
  GI50: 17.8 µM
HCC1419, cell line HCC1419
  GI50: 17.8 µM
[15]
  GI50: 5.13 µM
HCC1428, cell line HCC1428
  GI50: 5.13 µM
[16]
  GI50: 6.46 µM
HCC1500, cell line HCC1500
  GI50: 6.46 µM
[17]
  GI50: 5.37 µM
HCC1806, cell line HCC1806
  GI50: 5.37 µM
[18]
  GI50: 6.92 µM
HCC1937, cell line HCC1937
  GI50: 6.92 µM
[19]
  GI50: 5.62 µM
HCC1954, cell line HCC1954
  GI50: 5.62 µM
[20]
  GI50: 20.4 µM
[21]
  GI50: 11 µM
LY2 cell line, censored GI50 values
  GI50: 6.46 µM
[22]
  GI50: 5.89 µM
MCF7, cell line MCF7
  GI50: 5.89 µM
[23]
  GI50: 10.7 µM
[24]
  GI50: 6.31 µM
[25]
  GI50: 5.5 µM
[26]
  GI50: 3.63 µM
[27]
  GI50: 11.7 µM
[28]
  GI50: 5.62 µM
[29]
  GI50: 11.2 µM
MDA-MB-453, MDAMB453 cell line, censored GI50 values
  GI50: 4.17 µM
[30]
  GI50: 4.47 µM
[31]
  GI50: 6.76 µM
[32]
  GI50: 1.15 µM
[33]
  GI50: 2.69 µM
[34]
  GI50: 1.05 µM
[35]
  GI50: 6.31 µM
[36]
  GI50: 7.41 µM
[37]
  GI50: 1.55 µM
[38]
  GI50: 8.32 µM
[39]
  GI50: 0.871 µM
[40]
  GI50: 13.2 µM
ZR-75B, ZR75B cell line, censored GI50 values
  GI50: 7.59 µM
Cell line 600MPE
  GI50: 4.27 µM
Cell line HCC2185
  GI50: 20.4 µM
Cell line HCC3153
  GI50: 11 µM
Cell line LY2
  GI50: 6.46 µM
